Read-outs that look alike come from different tables or passages of the source.
Key:
rat TRPA1 [1] = target: T1, rat TRPA1 (Rattus norvegicus, UniProt Q6RI86); set-up: method as in PMID 34440274; conditions: cited from earlier work; for TRPA1 Efficacy (% AITC 100 μM): agonist effect as % of AITC 100 μM, HEK-293 rat TRPA1
T1 construct: expressed in transfected cells

human TRPV1 [2] = target: T2, human TRPV1 (Homo sapiens, UniProt Q8NER1); set-up: method as in PMID 34440274
T2 construct: expressed in transfected cells

rat TRPV4 [3] = target: T3, rat TRPV4 (Rattus norvegicus, UniProt Q9ERZ8); set-up: method as in PMID 34440274
T3 construct: expressed in transfected cells

rat TRPM8 [4] = target: T4, rat TRPM8 (Rattus norvegicus, UniProt Q8R455); set-up: method as in PMID 34440274; conditions: vs Icilin 0.25 μM; 22 °C; cited from earlier work
T4 construct: expressed in transfected cells

rat TRPV2 [5] = target: T5, rat TRPV2 (Rattus norvegicus, UniProt Q9WUD2); set-up: method as in PMID 34440274; conditions: cited from earlier work; for TRPV2 Efficacy (% Ionomycin 4 μM): agonist effect as % of ionomycin 4 μM
T5 construct: expressed in transfected cells
T5 sequence (Q9WUD2 1-761): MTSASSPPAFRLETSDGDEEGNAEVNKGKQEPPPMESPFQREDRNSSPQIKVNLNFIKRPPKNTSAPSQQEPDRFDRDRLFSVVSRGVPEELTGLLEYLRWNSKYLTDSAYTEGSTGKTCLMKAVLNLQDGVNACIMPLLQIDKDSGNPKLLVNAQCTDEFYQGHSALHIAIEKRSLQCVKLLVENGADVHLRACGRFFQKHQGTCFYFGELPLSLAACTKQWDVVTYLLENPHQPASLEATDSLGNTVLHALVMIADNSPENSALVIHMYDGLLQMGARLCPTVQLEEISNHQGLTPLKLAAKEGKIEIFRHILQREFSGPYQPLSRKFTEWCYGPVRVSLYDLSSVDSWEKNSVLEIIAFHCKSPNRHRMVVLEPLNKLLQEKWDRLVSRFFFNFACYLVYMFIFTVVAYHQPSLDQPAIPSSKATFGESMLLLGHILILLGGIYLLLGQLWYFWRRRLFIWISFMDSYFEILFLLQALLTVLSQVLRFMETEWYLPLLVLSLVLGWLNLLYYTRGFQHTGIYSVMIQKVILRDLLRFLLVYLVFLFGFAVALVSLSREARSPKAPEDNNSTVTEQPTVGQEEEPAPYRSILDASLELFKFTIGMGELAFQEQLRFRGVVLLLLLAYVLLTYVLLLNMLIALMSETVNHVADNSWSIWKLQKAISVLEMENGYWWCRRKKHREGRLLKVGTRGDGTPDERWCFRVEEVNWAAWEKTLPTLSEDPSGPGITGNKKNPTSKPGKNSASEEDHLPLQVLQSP

rat TRPV3 [6] = target: T6, rat TRPV3 (Rattus norvegicus, UniProt Q4QYD9); set-up: method as in PMID 34440274
T6 construct: expressed in transfected cells
T6 sequence (Q4QYD9 1-791): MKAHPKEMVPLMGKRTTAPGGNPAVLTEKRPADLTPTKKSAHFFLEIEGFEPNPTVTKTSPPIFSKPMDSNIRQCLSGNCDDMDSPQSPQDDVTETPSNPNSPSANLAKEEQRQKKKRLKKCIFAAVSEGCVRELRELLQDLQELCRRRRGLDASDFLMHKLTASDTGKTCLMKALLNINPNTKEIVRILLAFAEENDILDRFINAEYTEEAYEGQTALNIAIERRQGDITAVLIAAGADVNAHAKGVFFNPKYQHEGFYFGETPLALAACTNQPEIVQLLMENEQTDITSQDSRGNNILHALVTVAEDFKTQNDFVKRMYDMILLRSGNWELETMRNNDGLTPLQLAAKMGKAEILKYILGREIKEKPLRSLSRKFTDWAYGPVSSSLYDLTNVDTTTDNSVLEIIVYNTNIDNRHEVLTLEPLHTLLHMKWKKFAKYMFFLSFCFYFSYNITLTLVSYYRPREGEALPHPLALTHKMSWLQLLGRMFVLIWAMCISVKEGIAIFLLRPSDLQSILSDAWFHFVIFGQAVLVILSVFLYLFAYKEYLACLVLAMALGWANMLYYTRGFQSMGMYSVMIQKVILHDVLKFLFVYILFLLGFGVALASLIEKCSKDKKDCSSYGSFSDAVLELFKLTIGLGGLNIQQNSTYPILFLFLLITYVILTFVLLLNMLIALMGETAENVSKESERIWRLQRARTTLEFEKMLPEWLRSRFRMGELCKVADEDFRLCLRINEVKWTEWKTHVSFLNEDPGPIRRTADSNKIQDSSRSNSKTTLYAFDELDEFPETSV

rat TRPA1 [7] = target: T1, rat TRPA1; experiment: Thermo-TRP assay: [Ca2+]i elevation (Fluo-4) in HEK-293 cells transfected with TRPA1; assay type: cell-based
Method: (§1) The compounds were tested on HEK-293 cells either stably transfected with rat TRPA1, TRPV2, TRPV3, TRPV4, TRPM8 or human TRPV1 or not-transfected, by performing a continuous monitoring of the intracellular calcium ([Ca^2+]i) elevation during the experiments, following the protocol already described. […] Cell fluorescence before and after the addition of various concentrations of tested compounds was measured, normalizing the effects against the response to ionomycin (IM, 4 μM). The effect on [Ca^2+]i in non-transfected HEK-293 cells were used as the baseline and subtracted from the values obtained from the transfected ones. The efficacy of the agonists was determined by normalizing their effect to the maximum Ca^2+ influx effect on [Ca^2+]i observed with application of 4μM ionomycin. The effects of TRPA1 agonists are expressed as a percentage of the effect obtained with 100 μM allyl isothiocyanate (AITC). In the TRPV3 assay, rat TRPV3-expressing HEK-293 cells were first sensitized with the structurally unrelated agonist 2-aminoethoxydiphenyl borate (100 μM). For the TRPM8, the experiments were carried out at 22 °C. The potency (EC50 values) is determined as the concentration required to produce half-maximal increases in [Ca^2+]i. […] A dose-response curve fitting (sigmoidal dose-response variable slope) and parameter estimation were performed with Graph-Pad Prism 8 (GraphPad Software Inc., San Diego, CA, USA). All determinations were performed at least in triplicate.

human TRPV1 [8] = target: T2, human TRPV1; experiment: Thermo-TRP assay: [Ca2+]i elevation (Fluo-4) in HEK-293 cells transfected with TRPV1; assay type: cell-based
Method: as §1

rat TRPV4 [9] = target: T3, rat TRPV4; experiment: Thermo-TRP assay: [Ca2+]i elevation (Fluo-4) in HEK-293 cells transfected with TRPV4; assay type: cell-based
Method: as §1

rat TRPM8 [10] = target: T4, rat TRPM8; experiment: Thermo-TRP assay: [Ca2+]i elevation (Fluo-4) in HEK-293 cells transfected with TRPM8; assay type: cell-based
Method: as §1

rat TRPV2 [11] = target: T5, rat TRPV2; experiment: Thermo-TRP assay: [Ca2+]i elevation (Fluo-4) in HEK-293 cells transfected with TRPV2; assay type: cell-based
Method: (§2) The compounds were tested on HEK-293 cells either stably transfected with rat TRPA1, TRPV2, TRPV3, TRPV4, TRPM8 or human TRPV1 or not-transfected, by performing a continuous monitoring of the intracellular calcium ([Ca^2+]i) elevation during the experiments, following the protocol already described. On the day of the experiment, the cells were loaded for 1 h in the dark at room temperature with the fluorescent probe Fluo-4 AM (4 μM in DMSO containing 0.02% Pluronic F-127). The cells were rinsed, resuspended in Tyrode’s solution (145 mM NaCl, 2.5 mM KCl, 1.5 mM CaCl2, 1.2 mM MgCl2, 10 mM D-glucose, and 10 mM HEPES, pH 7.4), and transferred to a quartz cuvette of a spectrofluorimeter (PerkinElmer LS50B; λEX = 488 nm, λEM = 516 nm) equipped with a PTP-1 fluorescence Peltier system (PerkinElmer Life and Analytical Sciences, Waltham, MA, USA) under continuous stirring. Cell fluorescence before and after the addition of various concentrations of tested compounds was measured, normalizing the effects against the response to ionomycin (IM, 4 μM). The effect on [Ca^2+]i in non-transfected HEK-293 cells were used as the baseline and subtracted from the values obtained from the transfected ones. The efficacy of the agonists was determined by normalizing their effect to the maximum Ca^2+ influx effect on [Ca^2+]i observed with application of 4μM ionomycin. The effects of TRPA1 agonists are expressed as a percentage of the effect obtained with 100 μM allyl isothiocyanate (AITC). In the TRPV3 assay, rat TRPV3-expressing HEK-293 cells were first sensitized with the structurally unrelated agonist 2-aminoethoxydiphenyl borate (100 μM). For the TRPM8, the experiments were carried out at 22 °C. The potency (EC50 values) is determined as the concentration required to produce half-maximal increases in [Ca^2+]i. Antagonist/desensitizing behavior is evaluated against the agonist of the TRP analyzed by adding the compounds directly in the quartz cuvette 5 min before stimulation of cells with the agonist (allylisothiocyanate (100 μM) for TRPA1, capsaicin (0.1 μM) for TRPV1, cannabidiol (2 μM) for TRPV2, thymol (100 μM) for TRPV3, GSK1016790A (10 nM) for TRPV4, and icilin (0.25 μM) for TRPM8). The IC50 value is expressed as the concentration exerting a half-maximal inhibition of the agonist effect, taking as 100% the effect on [Ca^2+]i exerted by the agonist alone. A dose-response curve fitting (sigmoidal dose-response variable slope) and parameter estimation were performed with Graph-Pad Prism 8 (GraphPad Software Inc., San Diego, CA, USA). All determinations were performed at least in triplicate.

rat TRPV3 [12] = target: T6, rat TRPV3; experiment: Thermo-TRP assay: [Ca2+]i elevation (Fluo-4) in HEK-293 cells transfected with TRPV3; assay type: cell-based
Method: as §2

[13] = vs Capsaicin 0.1 μM; read-out: IC50 TRPV1; cited from earlier work
[14] = vs GSK1016790A 10 nM; read-out: IC50 TRPV4; cited from earlier work
[15] = agonist effect as % of ionomycin 4 μM; cited from earlier work
[16] = antagonist/desensitizing, vs Thymol 100 μM; cited from earlier work
[17] = read-out: IC50 TRPV1; vs Capsaicin 0.1 μM; cited from earlier work
[18] = read-out: IC50 TRPV4; vs GSK1016790A 10 nM; cited from earlier work

T3 sequence (Q9ERZ8 whole entry): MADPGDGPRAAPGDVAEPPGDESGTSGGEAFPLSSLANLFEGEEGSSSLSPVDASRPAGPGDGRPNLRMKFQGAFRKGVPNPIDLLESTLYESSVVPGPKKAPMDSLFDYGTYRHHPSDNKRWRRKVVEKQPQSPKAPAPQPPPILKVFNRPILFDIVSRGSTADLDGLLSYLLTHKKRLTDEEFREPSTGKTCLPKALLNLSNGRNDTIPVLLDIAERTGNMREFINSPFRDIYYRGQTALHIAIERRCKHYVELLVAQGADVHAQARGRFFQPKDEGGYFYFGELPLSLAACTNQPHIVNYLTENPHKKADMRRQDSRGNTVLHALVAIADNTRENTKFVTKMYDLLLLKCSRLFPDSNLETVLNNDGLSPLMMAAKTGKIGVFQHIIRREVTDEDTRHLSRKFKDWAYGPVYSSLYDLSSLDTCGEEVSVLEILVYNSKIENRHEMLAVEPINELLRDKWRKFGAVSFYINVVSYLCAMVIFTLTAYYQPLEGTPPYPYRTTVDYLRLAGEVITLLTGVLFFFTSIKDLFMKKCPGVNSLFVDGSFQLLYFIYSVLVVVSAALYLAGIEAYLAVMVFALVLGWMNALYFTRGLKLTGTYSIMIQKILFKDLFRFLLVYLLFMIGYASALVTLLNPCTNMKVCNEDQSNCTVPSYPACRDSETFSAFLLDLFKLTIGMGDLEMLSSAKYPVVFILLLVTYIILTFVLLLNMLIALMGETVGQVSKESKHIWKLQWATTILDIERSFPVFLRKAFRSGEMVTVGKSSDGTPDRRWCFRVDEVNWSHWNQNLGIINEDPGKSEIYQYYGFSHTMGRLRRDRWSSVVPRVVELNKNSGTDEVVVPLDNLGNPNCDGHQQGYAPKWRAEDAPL
T1 sequence (Q6RI86 whole entry): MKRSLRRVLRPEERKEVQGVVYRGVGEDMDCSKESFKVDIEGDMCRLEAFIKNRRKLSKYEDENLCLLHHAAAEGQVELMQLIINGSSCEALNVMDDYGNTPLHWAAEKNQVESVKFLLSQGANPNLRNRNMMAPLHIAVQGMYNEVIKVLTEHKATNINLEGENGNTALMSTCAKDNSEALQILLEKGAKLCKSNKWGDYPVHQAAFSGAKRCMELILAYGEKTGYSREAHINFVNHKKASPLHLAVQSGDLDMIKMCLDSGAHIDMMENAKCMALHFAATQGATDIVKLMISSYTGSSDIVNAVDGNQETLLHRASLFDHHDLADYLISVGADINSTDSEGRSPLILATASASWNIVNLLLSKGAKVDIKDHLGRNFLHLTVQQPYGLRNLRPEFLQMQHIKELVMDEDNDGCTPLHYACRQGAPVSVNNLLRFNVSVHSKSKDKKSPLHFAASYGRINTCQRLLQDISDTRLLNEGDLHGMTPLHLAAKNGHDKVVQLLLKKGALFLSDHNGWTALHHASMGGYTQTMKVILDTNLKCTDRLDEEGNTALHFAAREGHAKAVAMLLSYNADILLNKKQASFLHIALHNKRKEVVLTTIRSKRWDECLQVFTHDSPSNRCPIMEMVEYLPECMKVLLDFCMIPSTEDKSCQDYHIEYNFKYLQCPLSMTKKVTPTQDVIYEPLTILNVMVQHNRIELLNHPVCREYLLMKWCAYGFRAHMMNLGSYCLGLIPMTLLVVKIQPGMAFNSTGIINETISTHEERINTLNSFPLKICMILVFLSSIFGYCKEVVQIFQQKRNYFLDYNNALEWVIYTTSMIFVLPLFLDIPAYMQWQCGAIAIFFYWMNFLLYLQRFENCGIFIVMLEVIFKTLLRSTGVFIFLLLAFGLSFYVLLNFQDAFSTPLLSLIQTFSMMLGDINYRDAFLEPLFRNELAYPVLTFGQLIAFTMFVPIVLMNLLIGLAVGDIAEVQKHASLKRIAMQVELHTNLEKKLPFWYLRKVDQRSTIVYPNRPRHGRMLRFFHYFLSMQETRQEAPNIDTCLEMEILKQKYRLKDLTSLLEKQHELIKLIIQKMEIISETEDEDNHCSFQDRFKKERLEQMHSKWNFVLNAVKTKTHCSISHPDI
T2 sequence (Q8NER1 whole entry): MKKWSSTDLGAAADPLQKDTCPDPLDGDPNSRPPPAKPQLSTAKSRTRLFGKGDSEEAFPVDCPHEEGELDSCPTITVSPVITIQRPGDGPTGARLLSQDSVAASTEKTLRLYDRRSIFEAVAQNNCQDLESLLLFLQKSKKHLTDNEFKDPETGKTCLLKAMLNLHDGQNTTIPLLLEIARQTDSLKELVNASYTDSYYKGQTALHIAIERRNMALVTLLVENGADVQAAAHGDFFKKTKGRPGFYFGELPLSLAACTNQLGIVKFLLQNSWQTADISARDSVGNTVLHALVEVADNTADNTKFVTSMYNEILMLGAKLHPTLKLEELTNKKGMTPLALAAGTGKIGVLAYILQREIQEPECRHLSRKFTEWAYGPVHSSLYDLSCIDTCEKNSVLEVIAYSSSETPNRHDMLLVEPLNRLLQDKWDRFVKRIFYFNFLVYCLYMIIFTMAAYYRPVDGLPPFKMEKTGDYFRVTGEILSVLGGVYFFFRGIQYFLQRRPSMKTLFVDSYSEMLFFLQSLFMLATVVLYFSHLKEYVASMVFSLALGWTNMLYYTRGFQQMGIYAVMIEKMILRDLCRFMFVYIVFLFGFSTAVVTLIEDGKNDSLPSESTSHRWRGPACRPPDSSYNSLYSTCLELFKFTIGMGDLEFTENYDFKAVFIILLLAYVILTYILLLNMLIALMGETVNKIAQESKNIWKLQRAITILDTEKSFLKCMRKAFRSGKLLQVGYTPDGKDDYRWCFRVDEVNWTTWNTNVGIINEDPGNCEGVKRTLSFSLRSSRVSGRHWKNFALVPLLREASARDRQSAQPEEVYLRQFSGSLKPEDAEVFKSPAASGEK
T4 sequence (Q8R455 whole entry): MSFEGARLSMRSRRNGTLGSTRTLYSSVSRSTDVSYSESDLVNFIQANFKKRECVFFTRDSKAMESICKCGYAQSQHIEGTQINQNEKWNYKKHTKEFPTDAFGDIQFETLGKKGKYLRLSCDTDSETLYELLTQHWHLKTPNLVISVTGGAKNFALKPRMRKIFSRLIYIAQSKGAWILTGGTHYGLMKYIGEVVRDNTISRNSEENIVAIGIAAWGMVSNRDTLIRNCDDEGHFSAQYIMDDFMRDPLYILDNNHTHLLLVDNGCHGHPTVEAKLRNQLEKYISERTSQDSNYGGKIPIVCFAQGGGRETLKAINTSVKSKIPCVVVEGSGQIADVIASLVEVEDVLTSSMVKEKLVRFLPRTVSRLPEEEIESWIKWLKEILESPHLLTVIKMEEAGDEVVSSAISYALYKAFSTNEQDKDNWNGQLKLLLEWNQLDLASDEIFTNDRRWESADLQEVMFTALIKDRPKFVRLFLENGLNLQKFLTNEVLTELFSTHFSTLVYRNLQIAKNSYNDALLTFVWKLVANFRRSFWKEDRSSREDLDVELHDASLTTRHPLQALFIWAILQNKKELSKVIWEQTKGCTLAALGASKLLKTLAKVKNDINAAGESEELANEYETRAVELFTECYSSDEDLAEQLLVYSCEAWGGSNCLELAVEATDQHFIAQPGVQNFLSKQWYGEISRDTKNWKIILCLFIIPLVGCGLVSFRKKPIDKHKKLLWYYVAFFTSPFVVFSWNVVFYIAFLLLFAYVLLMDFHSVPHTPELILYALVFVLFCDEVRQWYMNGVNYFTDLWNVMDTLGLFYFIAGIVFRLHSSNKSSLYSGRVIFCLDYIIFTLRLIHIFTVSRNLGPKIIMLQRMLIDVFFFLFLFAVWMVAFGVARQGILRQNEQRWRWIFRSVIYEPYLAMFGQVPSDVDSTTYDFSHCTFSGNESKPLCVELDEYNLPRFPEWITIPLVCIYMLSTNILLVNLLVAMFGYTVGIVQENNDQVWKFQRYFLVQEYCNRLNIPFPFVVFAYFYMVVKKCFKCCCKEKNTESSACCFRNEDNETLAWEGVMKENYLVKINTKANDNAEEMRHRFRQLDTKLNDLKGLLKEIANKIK

Row | Compound | TRPA1 Efficacy (% AITC 100 μM) (rat TRPA1 [1]) [%] | IC50 (human TRPV1 [2]; [13]) [µM] | IC50 (rat TRPV4 [3]; [14]) [µM] | TRPV2 Efficacy (% Ionomycin 4 μM) (rat TRPV2 [5]) [%] | TRPV3 Efficacy (% Ionomycin 4 μM) (rat TRPV3 [6]; [15]) [%] | IC50 (rat TRPV3 [6]; [16]) [µM] | IC50 (human TRPV1 [2]; [17]) [µM] | IC50 (rat TRPV4 [3]; [18]) [µM] | other results
1 | CCCCCCC(C)(C)c1cc(O)c2c(c1)OC(C)(CCC=C(C)C)C=C2 (centres unmarked) [8a, DMH-CBC] | 120.4 ± 2.8 | > 100 | > 100 | 76.1 ± 0.6 | 41.6 ± 1.8 | > 50 |  |  | IC50 (rat TRPA1 [1]; read-out: IC50 TRPA1, antagonist/desensitizing, vs AITC 100 μM): 0.37 µM; IC50 (rat TRPM8 [4]): > 100 µM; EC50 (rat TRPV3 [6]; half-maximal increase in [Ca2+]i; read-out: TRPV3 Potency EC50; cited from earlier work): > 50 µM
2 | CCCCCCC(C)(C)c1cc(O)c(C/C=C(\C)CCC=C(C)C)c(O)c1 [7a, DMH-CBG] | 99.2 ± 4.5 | > 100 |  | 65.3 ± 0.7 | 64.6 ± 4.8 | > 30 |  |  | 
3 | CCCCCCC(C)(C)C1=CC2=C(C(=O)C1=O)c1cc(C)ccc1C(C)(C)O2 [9b] |  |  |  |  |  |  |  |  | IC50 (rat TRPA1 [7]; IC50 TRPA1, antagonist/desensitizing, added 5 min before AITC 100 μM): 15.1 ± 2.4 µM; TRPA1 Efficacy (% AITC 100 μM) (rat TRPA1 [7]; agonist effect as % of AITC 100 μM, HEK-293 rat TRPA1): 20.5%; IC50 (human TRPV1 [8]): > 100 µM; IC50 (rat TRPV4 [9]): > 100 µM; IC50 (rat TRPM8 [10]): > 100 µM; TRPV2 Efficacy (% Ionomycin 4 μM) (rat TRPV2 [11]; agonist effect as % of ionomycin 4 μM): 23.4 ± 3.7%; EC50 (rat TRPV2 [11]; half-maximal increase in [Ca2+]i, read-out: TRPV2 Potency EC50): 2 ± 1.6 µM; IC50 (rat TRPV2 [11]; vs CBD 2 μM): 5.2 ± 0.6 µM; TRPV3 Efficacy (% Ionomycin 4 μM) (rat TRPV3 [12]; agonist effect as % of ionomycin 4 μM, cells sensitized with 2-aminoethoxydiphenyl borate 100 μM): 32.5 ± 0.65%; IC50 (rat TRPV3 [12]; antagonist/desensitizing, vs Thymol 100 μM): 19.4 ± 3.5 µM; EC50 (rat TRPV3 [12]; half-maximal increase in [Ca2+]i, read-out: TRPV3 Potency EC50): 1.15 ± 0.15 µM
4 | CCCCCCC(C)(C)c1cc(O)c2c(c1)OC(C)(C)[C@@H]1CC=C(C)C[C@@H]21 [6a, DMH-Δ⁸-THC] | 124.2 ± 4.0 |  |  | <10 | 53.8 ± 1.6 |  | > 100 | > 100 | 
5 | C=C(C)[C@@H]1CCC(C)=C[C@H]1c1c(O)cc(C(C)(C)CCCCCC)cc1O [5a, DMH-CBD] | 133.4 ± 5.3 | > 100 | > 100 | <10 | 15.8 ± 0.4 | > 30 |  |  | 
6 | CCCCCCC(C)(C)c1cc(O)c2c(c1)OC(C)(C)c1ccc(C)cc1-2 [9a, DMH-CBN] | 132.3 ± 7.9 |  |  | 10.5 ± 0.02 | 20.9 ± 3.0 |  | > 100 | > 100 | IC50 (rat TRPV2 [5]; read-out: IC50 TRPV2, vs CBD 2 μM): > 50 µM; EC50 (rat TRPV2 [5]; read-out: TRPV2 Potency EC50, half-maximal increase in [Ca2+]i): 0.25 ± 0.03 µM; EC50 (rat TRPV3 [6]; read-out: TRPV3 Potency EC50; half-maximal increase in [Ca2+]i; cited from earlier work): 41.4 ± 21.6 µM

Source: PMC11942486, “The Impact of a Quinone Scaffold on Thermo-TRPs Modulation by Dimethylheptyl Phytocannabinoids” (International Journal of Molecular Sciences, 2025)
